Assay results: US11453677B2 (priority 2016, dated 2022)

Tests used:
Test in all cases: cells
Format in all cases: cell-based
[1] = system: influenza A virus minigenome (PB2, PB1, PA, NP) RNP_CAL in 293T cells; conditions: HEK-293T, 48 h, read-out: RNP_CAL_EC50
[2] = system: influenza A virus minigenome (PB2, PB1, PA, NP) RNP_Alaska in 293T cells; conditions: HEK-293T, 48 h, read-out: RNP_Alaska EC50
[3] = system: influenza virus minigenome (PB2, PB1, PA, NP) RNP_Hubei in 293T cells; conditions: unidentified influenza virus, HEK-293T, 48 h, read-out: RNP_Hubei EC50

Structure (SMILES)	EC50 [1] [nM]	EC50 [2] [nM]	EC50 [3] [nM]
O=c1ccn2c(c1O)-c1ncc(CNC3CCOCC3)n1C[C@@H]2C(c1ccccc1)c1ccccc1 [Example 65, (S)-6-benzhydryl-11-hydroxy-3-(((tetrahydro-2H-pyran-4-yl)amino)methyl)-5,6-dihydro-10H-imidazo[1,2-a]pyrido[2,1-c]pyrazin-10-one]	3500	4800	4900
C[C@@H](NCc1cnc2n1C[C@H](C(c1ccccc1)c1ccccc1)n1ccc(=O)c(O)c1-2)C(F)(F)F [Example 66, (S)-6-benzhydryl-11-hydroxy-3-((((R)-1,1,1-trifluoropropan-2-yl)amino)methyl)-5,6-dihydro-10H-imidazo[1,2-a]pyrido[2,1-c]pyrazin-10-one]	310	720	630
O=C(NC1CC1)c1cnc2n1C[C@H](C(c1ccccc1)c1ccccc1)n1ccc(=O)c(O)c1-2 [Example 70, (S)-6-benzhydryl-N-cyclopropyl-11-hydroxy-10-oxo-5,6-dihydro-10H-imidazo[1,2-a]pyrido[2,1-c]pyrazine-3-carboxamide]	1700	6400	12300
O=C(c1cnc2n1C[C@H](C(c1ccccc1)c1ccccc1)n1ccc(=O)c(O)c1-2)N1CCCC1 [Example 72, (S)-6-benzhydryl-11-hydroxy-3-(pyrrolidine-1-carbonyl)-5,6-dihydro-10H-imidazo[1,2-a]pyrido[2,1-c]pyrazin-10-one]	1700	3000	5500
O=c1ccn2c(c1O)-c1nccn1CN2C1c2ccccc2CSc2ccccc21 (stereo not drawn) [Example 74, 6-(6,11-dihydrodibenzo[b,e]thiepin-11-yl)-11-hydroxy-5,6-dihydro-10H-imidazo[1,2-d]pyrido[2,1-f][1,2,4]triazin-10-one]	84	130	260
CC1(C)N(C(c2ccccc2)c2ccccc2)n2ccc(=O)c(O)c2-c2nccn21 [Example 75, 6-benzhydryl-11-hydroxy-5,5-dimethyl-5,6-dihydro-10H-imidazo[1,2-d]pyrido[2,1-f][1,2,4]triazin-10-one]	300	480	400
O=c1ccn2c(c1O)-c1nccn1C(C1CC1)N2C1c2ccccc2CSc2ccccc21 (stereo not drawn) [Example 76, 5-cyclopropyl-6-(6,11-dihydrodibenzo[b,e]thiepin-11-yl)-11-hydroxy-5,6-dihydro-10H-imidazo[1,2-d]pyrido[2,1-f][1,2,4]triazin-10-one]	160	430	670
CCC1N(C(c2ccccc2)c2ccccc2)n2ccc(=O)c(O)c2-c2nccn21 (stereo not drawn) [Example 78, 6-benzhydryl-5-ethyl-11-hydroxy-5,6-dihydro-10H-imidazo[1,2-d]pyrido[2,1-f][1,2,4]triazin-10-one]	180	250	340
O=c1ccn2c(c1O)-c1nccn1C1(COC1)N2C1c2ccccc2CSc2ccccc21 (stereo not drawn) [Example 80, 6-(6,11-dihydrodibenzo[b,e]thiepin-11-yl)-11-hydroxy-6H,10H-spiro[imidazo[1,2-d]pyrido[2,1-f][1,2,4]triazine-5,3′-oxetan]-10-one]	10	170	27
O=c1ccn2c(c1O)-c1ncoc1CN2C(c1ccccc1)c1ccccc1 [Example 83, 5-benzhydryl-10-hydroxy-4,5-dihydro-9H-oxazolo[4,5-d]pyrido[1,2-b]pyridazin-9-one]	970	960	730
O=c1ccn2c(c1O)-c1ocnc1CN2C(c1ccccc1)c1ccccc1 [Example 84, 5-benzhydryl-10-hydroxy-4,5-dihydro-9H-oxazolo[5,4-d]pyrido[1,2-b]pyridazin-9-one]	11000	14000	16000
